# Target: T1, Chk1 (Homo sapiens, UniProt O14757)
# T1 construct: purchased Upstate Biotechnology
# T1 sequence (O14757 1-476): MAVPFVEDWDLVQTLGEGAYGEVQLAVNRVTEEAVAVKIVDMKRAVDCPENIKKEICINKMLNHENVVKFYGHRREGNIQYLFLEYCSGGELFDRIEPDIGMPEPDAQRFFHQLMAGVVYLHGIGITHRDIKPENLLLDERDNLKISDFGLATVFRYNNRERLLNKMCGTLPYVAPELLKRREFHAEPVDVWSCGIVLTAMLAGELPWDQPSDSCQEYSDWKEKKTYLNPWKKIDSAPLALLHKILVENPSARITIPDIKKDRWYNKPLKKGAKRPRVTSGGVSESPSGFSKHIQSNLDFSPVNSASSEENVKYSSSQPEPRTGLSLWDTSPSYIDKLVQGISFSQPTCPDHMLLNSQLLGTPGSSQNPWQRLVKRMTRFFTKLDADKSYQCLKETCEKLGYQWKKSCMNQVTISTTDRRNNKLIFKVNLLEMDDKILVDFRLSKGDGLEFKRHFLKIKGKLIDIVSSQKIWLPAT
# Assay: Chk1 kinase assay: incorporation of γ-33P ATP into immobilized myelin basic protein
# Type: biochemical
# Settings: Table 11, Chk1 only; class symbols A-D; read-out: Chk1 IC50
# Summary of the method: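 Radiometric filter-free format: Chk1 10 nM, 10 μM ATP; Chk2 20 nM, 30 μM ATP; γ-33P ATP tracer; immobilized MBP substrate; Hepes pH 7.6, 10 mM MgCl2, 1 mM DTT; 1 h RT; 1% DMSO. Scintillation counting of washed plates. IC50/Ki from curve fit.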
row,IC50,Structure (SMILES)
1,< 50 nM,"Nc1cc(-c2n[nH]c(-c3nc(-c4cccc(CN[C@H]5CCc6ccccc65)c4)cnc3N)n2)ccn1 [Example 946, 3-[3-(2-aminopyridin-4-yl)-1H-1,2,4-triazol-5-yl]-5-(3-{[(1S)-2,3-dihydro-1H-inden-1-ylamino]methyl}phenyl)pyrazin-2-amine]"
2,< 50 nM,"Nc1ncc(-c2cccc(C(=O)NCc3ccccc3Cl)c2)nc1-c1nc([C@H]2CCCNC2)n[nH]1 [Example 821, 3-(5-amino-6-{3-[(3S)-piperidin-3-yl]-1H-1,2,4-triazol-5-yl}pyrazin-2-yl)-N-[(2-chlorophenyl)methyl]benzamide]"
3,< 50 nM,"Nc1ncc(-c2cccc(C(=O)NCc3c(F)cccc3Cl)c2)nc1C(=O)N[C@H]1CCCNC1 [Example 995, 3-amino-6-[3-({[(2-chloro-6-fluorophenyl)methyl]amino}carbonyl)phenyl]-N-[(3S)-piperidin-3-yl]pyrazine-2-carboxamide]"
4,< 50 nM,"Cc1ccc(F)cc1CNC(=O)c1cccc(-c2cnc(N)c(C(=O)N[C@H]3CCCNC3)n2)c1 [Example 1031, 3-amino-6-[3-({[(5-fluoro-2-methylphenyl)methyl]amino}carbonyl)phenyl]-N-[(3S)-piperidin-3-yl]pyrazine-2-carboxamide]"
5,50 to 1000 nM,"Nc1ncc(-c2cccc(C(=O)N[C@H]3CCc4ccccc43)c2)nc1C(=O)N[C@H]1CCCCN(Cc2ccccc2)C1 [Example 972, 3-amino-6-(3-{[(1S)-2,3-dihydro-1H-inden-1-ylamino]carbonyl}phenyl)-N-[(3S)-1-(phenylmethyl)azepan-3-yl]pyrazine-2-carboxamide]"
6,< 50 nM,"Nc1ncc(-c2cccc(C(=O)NCc3ccc(Cl)cc3F)c2)nc1-c1nc([C@H]2CCCNC2)n[nH]1 [Example 820, 3-(5-amino-6-{3-[(3S)-piperidin-3-yl]-1H-1,2,4-triazol-5-yl}pyrazin-2-yl)-N-[(4-chloro-2-fluorophenyl)methyl]benzamide]"
7,< 50 nM,"Nc1ncc(-c2cccc(C(=O)NCc3cc(F)cc(F)c3F)c2)nc1C(=O)N[C@H]1CCCNC1 [Example 1030, 3-amino-N-[(3S)-piperidin-3-yl]-6-[3-({[(2,3,5-trifluorophenyl)methyl]amino}carbonyl)phenyl]pyrazine-2-carboxamide]"

# Same assay, conditions: Table 11; Chk1 only; read-out: Chk1 IC50
row,Structure (SMILES),IC50
1,"CNC(=O)c1nc(-c2cccc(CNC(C)(C)c3ccccc3)c2)cnc1N [Example 446, 3-amino-N-methyl-6-(3-{[(1-methyl-1-phenylethyl)amino]methyl}phenyl)pyrazine-2-carboxamide]",50 to 1000 nM
2,"COC[C@H]1CCCN1NC(=N)c1nc(-c2cccc(C(=O)NCc3ccccc3)c2)cnc1N [Example 624, 3-{5-amino-6-[imino({(2R)-2-[(methyloxy)methyl]pyrrolidin-1-yl}amino)methyl]pyrazin-2-yl}-N-(phenylmethyl)benzamide]",≥ 10000 nM
3,"C/C(=N\Nc1ccccn1)c1nc(-c2cccc(C(=O)NCc3ccccc3)c2)cnc1N [Example 632, 3-{5-amino-6-[(1E)-N-pyridin-2-ylethanehydrazonoyl]pyrazin-2-yl}-N-(phenylmethyl)benzamide]",≥ 10000 nM
4,"C/C(=N\N(C)c1ccccc1)c1nc(-c2cccc(C(=O)NCc3ccccc3)c2)cnc1N [Example 604, 3-{5-amino-6-[(1E)-N-methyl-N-phenylethanehydrazonoyl]pyrazin-2-yl}-N-(phenylmethyl)benzamide]",1000 to 10000 nM

# More lines, now with the values ahead:
row,IC50,Structure (SMILES)
1,50 to 1000 nM,"CNC(=O)c1nc(-c2cccc(CN[C@@H]3CCC[C@H]3OCc3ccccc3)c2)cnc1N [Example 506, 3-amino-N-methyl-6-{3-[({(1R,2R)-2-[(phenylmethyl)oxy]cyclopentyl}amino)methyl]phenyl}pyrazine-2-carboxamide]"
2,< 50 nM,CNC(=O)c1nc(-c2cccc(CNC3CCc4cc(CCCO)ccc43)c2)cnc1N (stereo not drawn) [Example 527]
3,50 to 1000 nM,"CNC(=O)c1nc(-c2cccc(CN[C@@H](C)c3ccccc3)c2)cnc1N [Example 427, 3-amino-N-methyl-6-[3-({[(1S)-1-phenylethyl]amino}methyl)phenyl]pyrazine-2-carboxamide]"
4,< 50 nM,"CNCCNC(=O)c1nc(-c2cccc(CN[C@H]3CCc4ccccc43)c2)cnc1N [Example 559, 3-amino-6-(3-{[(1S)-2,3-dihydro-1H-inden-1-ylamino]methyl}phenyl)-N-[2-(methylamino)ethyl]pyrazine-2-carboxamide]"
5,50 to 1000 nM,"CNC(=O)c1nc(-c2cccc(CNC3CCc4c(F)cccc43)c2)cnc1N (stereo not drawn) [Example 473, 3-amino-6-(3-{[(4-fluoro-2,3-dihydro-1H-inden-1-yl)amino]methyl}phenyl)-N-methylpyrazine-2-carboxamide]"
6,50 to 1000 nM,"Nc1ncc(-c2cccc(CN[C@H]3CCc4ccccc43)c2)nc1C(=O)c1ccccc1 [Example 546, [3-amino-6-(3-{[(1S)-2,3-dihydro-1H-inden-1-ylamino]methyl}phenyl)pyrazin-2-yl](phenyl)methanone]"
7,50 to 1000 nM,"Nc1ncc(-c2cccc(CN[C@H]3CCc4ccccc43)c2)nc1C(=O)NCCN1CCCC1 [Example 540, 3-amino-6-(3-{[(1S)-2,3-dihydro-1H-inden-1-ylamino]methyl}phenyl)-N-(2-pyrrolidin-1-ylethyl)pyrazine-2-carboxamide]"
8,< 50 nM,"CNC(=O)c1nc(-c2ccc3c(c2)C(N[C@H]2CCc4ccccc42)CC3)cnc1N (stereo partly drawn) [Example 526, 3-amino-6-{3-[(1S)-2,3-dihydro-1H-inden-1-ylamino]-2,3-dihydro-1H-inden-5-yl}-N-methylpyrazine-2-carboxamide]"
9,1000 to 10000 nM,"Nc1ncc(-c2cccc(CO)c2)nc1-c1nc(C2CCNCC2)n[nH]1 [Example 607, {3-[5-amino-6-(3-piperidin-4-yl-1H-1,2,4-triazol-5-yl)pyrazin-2-yl]phenyl}methanol]"
10,50 to 1000 nM,"Nc1ncc(-c2cccc(CN[C@H]3CCc4ccccc43)c2)nc1C(=O)NCCCn1ccnc1 [Example 586, 3-amino-6-(3-{[(1S)-2,3-dihydro-1H-inden-1-ylamino]methyl}phenyl)-N-[3-(1H-imidazol-1-yl)propyl]pyrazine-2-carboxamide]"

# Same assay, conditions: read-out: Chk1 IC50
row,Structure (SMILES),IC50
1,"CNC(=O)c1nc(-c2cccc(C(=O)N[C@H]3c4ccccc4C[C@H]3O)c2)cnc1N [Example 141, 3-amino-6-[3-({[(1S,2R)-2-hydroxy-2,3-dihydro-1H-inden-1-yl]amino}carbonyl)phenyl]-N-methylpyrazine-2-carboxamide]",1000 to 10000 nM
2,"CNC(=O)c1nc(-c2cccc(NC(=O)Nc3cccc(-c4cnc(N)c(C(=O)NC)n4)c3)c2)cnc1N [Example 91, 6,6′-[(oxomethanediyl)bis(iminobenzene-3,1-diyl)]bis(3-amino-N-methylpyrazine-2-carboxamide)]",< 50 nM
3,"CNC(=O)c1nc(-c2cccc(C(=O)NCc3ccc(OC)cc3)c2)cnc1N [Example 95, 3-amino-N-methyl-6-{3-[({[4-(methyloxy)phenyl]methyl}amino)carbonyl]phenyl}pyrazine-2-carboxamide]",50 to 1000 nM
4,"CNC(=O)c1nc(-c2cccc(NC(=O)O[C@@H]3C[C@H](C)CC[C@H]3C(C)C)c2)cnc1N [Example 322, (1R,2S,5R)-5-methyl-2-(1-methylethyl)cyclohexyl (3-{5-amino-6-[(methylamino)carbonyl]pyrazin-2-yl}phenyl)carbamate]",≥ 10000 nM
5,"CNC(=O)c1nc(-c2ccc3[nH]ccc3c2)cnc1N [Example 267, 3-amino-6-(1H-indol-5-yl)-N-methylpyrazine-2-carboxamide]",50 to 1000 nM
6,"CNC(=O)c1nc(-c2cccc(C(=O)NCc3cccc(N4CCOCC4)c3)c2)cnc1N [Example 344, 3-amino-N-methyl-6-[3-({[(3-morpholin-4-ylphenyl)methyl]amino}carbonyl)phenyl]pyrazine-2-carboxamide]",1000 to 10000 nM
7,"CNC(=O)c1nc(-c2cccc(S(C)(=O)=O)c2)cnc1N [Example 234, 3-amino-N-methyl-6-[3-(methylsulfonyl)phenyl]pyrazine-2-carboxamide]",1000 to 10000 nM
8,"CNC(=O)c1nc(-c2cccc(C(=O)NCC3CCCN3C(=O)OC(C)(C)C)c2)cnc1N (stereo not drawn) [Example 365, 1,1-dimethylethyl 2-({[(3-{5-amino-6-[(methylamino)carbonyl]pyrazin-2-yl}phenyl)carbonyl]amino}methyl)pyrrolidine-1-carboxylate]",1000 to 10000 nM
9,"CNC(=O)c1nc(-c2cccc(C(=O)NCCc3cccs3)c2)cnc1N [Example 132, 3-amino-N-methyl-6-[3-({[2-(2-thienyl)ethyl]amino}carbonyl)phenyl]pyrazine-2-carboxamide]",50 to 1000 nM

# Next, values leading:
row,IC50,Structure (SMILES)
1,1000 to 10000 nM,"CNC(=O)c1nc(-c2cccc(OCCN3CCC(CCO)CC3)c2)cnc1N [Example 176, 3-amino-6-[3-({2-[4-(2-hydroxyethyl)piperidin-1-yl]ethyl}oxy)phenyl]-N-methylpyrazine-2-carboxamide]"
2,1000 to 10000 nM,"CNC(=O)c1nc(-c2ccc(CO)cc2)cnc1N [Example 58, 3-amino-6-[4-(hydroxymethyl)phenyl]-N-methylpyrazine-2-carboxamide]"
3,50 to 1000 nM,"CNC(=O)c1nc(-c2cccc(C(=O)N[C@H]3CCN(Cc4ccccc4)C3)c2)cnc1N [Example 196, 3-amino-N-methyl-6-[3-({[(3S)-1-(phenylmethyl)pyrrolidin-3-yl]amino}carbonyl)phenyl]pyrazine-2-carboxamide]"

# — patent US7704995B2 (Exelixis, Inc., priority 2003, dated 2010)
